The text below walks through data of patent US8557875B2, “Gene transfer agent composition containing polyamidoamine dendron” (Public University Corporation Osaka Prefecture University, priority 2009, dated 2013).

Series [1] concerns NHDF-ad cells. Briefly: Toxicity evaluation after multiple gene transfer, WST-8 kit (Example 7). Type of series: cell-based, human. The conditions noted are these: transfer on Day 1, 3, 5, WST-8 on Day 7. On the procedure: (NHDF-ad cells: 3.5×10^3 cells/well·DMEM+10% FBS (Pe/St) 70 μl)
(i) A 20 mM Tris-HCl (pH 7.4) buffer was dispensed into tubes at 35.5 μl (for NP ratio=6).
(ii) 1.0 μg of plasmid DNA (pCAG-GFP) was added to each of the two tubes prepared in step (i) at 2 μl (1.0 μg), and the contents were stirred.
(iii) To the prepared plasmid DNA solution was added 37.5 μl of a DL-U2 liposome solution (N/P ratio=6), and the whole was thoroughly mixed using a vortex and incubated at room temperature for 30 minutes.
(iv) 25 μl of an Opti-MEM(R) I Reduced-Serum Medium was further added, and the whole was thoroughly mixed and allowed to stand at room temperature for 5 minutes.
7 μl and 14 μl per well of the DL-plasmid DNA complex solutions was individually added to three wells, and the contents were mixed by shaking the plate so as to be homogeneous.
(§1) (vi) The cells were incubated at 37° C. in 5% CO2 for 4 hours, and the growth medium was replaced.
For the cells subjected to gene transfer operations on Day 1, the same gene transfer was performed on Day 3 and Day 5, as well.
Day 7 Toxicity evaluation was performed according to the protocol of a WST-8 kit (Kishida Chemical Co., Ltd.).
(a well to which no lipoplex solution was added was defined as 100%) […]
A general note: Tetrazolium assays rely on reduction of a dye to a coloured formazan, in cell work by metabolically active cells.

Series [2] concerns NHDF-ad cells. The experiment in a line: Flow cytometry of GFP fluorescence in treated cells. Type of series: cell-based, human.
Series [3] concerns HeLa-S3. Briefly: Cytotoxic evaluation on gene transfer (Example 5). Type of series: cell-based. The conditions noted are these: compared with Lipofectamine LTX and FuGENE HD.
For series [4], the system named is COS-7. Briefly: Cytotoxic evaluation on gene transfer (Example 5). The format is cell-based. The conditions noted are these: compared with Lipofectamine LTX and FuGENE HD.
For series [5], the system named is NHDF-ad cells. Briefly: Multiple gene transfer, GFP expression (Example 7). The conditions noted are these: transfer on Day 1, 3, 5, observed Day 7. Type of series: cell-based, human. On the procedure:
pEGFP-C1 expressing a green fluorescent protein was used as a gene transfer plasmid, and NHDF-ad cells, which were normal […] cells derived from adult humans also used for production of iPS cells, were used as target cells. Lipoplexes were individually prepared using DL-U2. Then, gene transfer was performed multiple times.
(NHDF-ad cells: 2×10^4 cells/well·DMEM+10% FBS (Pe/St) 500 μl)
(i) A 20 mM Tris-HCl (pH 7.4) buffer was dispensed into tubes at 71 μl (for NP ratio=6).
(ii) 2.0 μg of plasmid DNA (pCAG-GFP) were added to each of the two tubes prepared in step (i) at 4 μl (2.0 μg), and the contents were stirred.
(iii) To the prepared plasmid DNA solution was added 75 μl of a DL-U2 liposome solution (N/P ratio=6), and the whole was thoroughly mixed using a vortex and incubated at room temperature for 30 minutes.
(iv) 50 μl of an Opti-MEM(R) I Reduced-Serum Medium was further added, and the whole was thoroughly mixed and allowed to stand at room temperature for 5 minutes.
(v) 100 μl per well of the DL-plasmid DNA complex solutions was individually added to one well, and the contents were mixed by shaking the plate so as to be homogeneous.
as §1
For the cells subjected to gene transfer operations on Day 1, the same gene transfer was performed on Day 3 and Day 5 as well.

Series [6] deals with NHDF-ad cells. The experiment in a line: GFP expression after gene transfer with lipoplexes (Example 4). Type of series: cell-based, human. Conditions: GFP-expression plasmid. On the procedure:
A solvent was removed from each of chloroform solutions (1 mg/ml) of polyamidoamine dendrons (DL-G1 and DL-G1-U2) using a rotary evaporator to form 111.5 μg of lipid thin films. The thin films were dried in vacuo for 2 hours. Then, […] of phosphate buffered saline (PBS) were added. The mixtures were further sonicated for 2 minutes using a bath-type ultrasonicator to give 160 μl of lipid dispersion liquids. In addition, a solution (20 μg/ml, 160 μl) prepared by dissolving plasmid DNA in a 20 mM Tris-HCl buffer was added to each of the lipid dispersion liquids so as to obtain different N/P ratios. Then, the liquids were incubated at room temperature for 30 minutes to obtain lipoplexes.
pEGFP-C1 expressing a green fluorescent protein was used as a gene transfer plasmid, and NHDF-ad cells were used as target cells. Lipoplexes were prepared using, individually, DL-U2 and DL-G1. Then, gene transfer was performed.
NHDF-ad cells were seeded in a 24-well plate.
(NHDF-ad cells: 2.5×10^4 cells/well·DMEM+10% FBS (Pe/St) 500 μl)
(i) A 20 mM Tris-HCl (pH 7.4) buffer was dispensed into two tubes at, individually, 56.3 μl (for NP ratio=3) and 37.5 μl (for NP ratio=6).
(ii) 1.0 μg of plasmid DNA (pCAG-GFP) was added to each of the two tubes prepared in step (i) at 2 μl (1.0 μg), and the contents were stirred. […]

Series [7] deals with various types of cells. Briefly: Transfection of various cell strains, GFP expression (Example 8). The conditions noted are these: COS7, HeLa-S3, A549, U2OS, SKOV3, Balb3T3, CHO, Jurkat, K562; 48 hours. The format is cell-based. On the procedure:
4 hours after the addition, the medium was replaced (however, the medium was not replaced for Jurkat, K562). […] It should be noted that experimental conditions not described in the table conformed to those of the other examples.

In the case of `CCCCCCCC/C=C\CCCCCCCCN(CCCCCCCC/C=C\CCCCCCCC)CCC(=O)NCCN(CCC(=O)NCCN)CCC(=O)NCCN` (racemic) [DL-G1-U2], the “toxicity after multiple gene transfer” value in series [1] is reported as “lowest toxicity”. The “fluorescence intensity of GFP expressed in the cells compared with DL-G1” value in series [2] is “about ten times higher”. Moreover, the cytotoxicity entry in series [3] and in series [4] was “lower cytotoxicity” in each case. Also, in series [5], the “gene transfer activity / gene expression after multiple gene transfer” value was “allowed the gene to be expressed most efficiently”. Further, the “gene transfer into NHDF-ad cells” value in series [6] is recorded as “allowed the gene to be transferred”. In series [7], the “gene transfer into various types of cells” value is recorded as “allowed the gene to be efficiently transferred”.
